{
  "source": "patent US20160178613A1",
  "about": "“Electrical Cell-substrate Impedance Sensor (ECIS)” (priority 2015, published 2016)",
  "key": {"[1]": {"tested_on": "MCF-7 cells", "experiment": "SiNW-ECIS electrical impedance/capacitance response of MCF-7 cells treated with antitubulin drugs", "format": "cell-based, human", "conditions": "PTX 0.1 nano-moles per liter; for changes in membrane impedance vs control sample (normalized, mean) / variations in capacitance of the sensor vs control sample (normalized): MCF-7, 2 hours (T1) after drug incubation; for changes in membrane impedance vs control sample (normalized, mean) / variations in capacitance of the sensor vs control sample (normalized) / change in norm of impedance of treated cells, T1 vs T2 / changes in electrical impedance with respect to control sample / norm of capacitive changes, control sample more than drug value: ABZ 2.1 nano-moles per liter; for changes in electrical impedance with respect to control sample / norm of capacitive changes, control sample more than drug value: MCF-7, 6 hours (T2) after drug incubation", "description": "In this example, the diagnostic response of cells membrane to extremely low dose of antitubulin drugs is investigated. Initially, MCF-7 cell lines, isolated from grade I human breast tumors, were obtained from the National Cell Bank of Iran (Pasteur Institute). Then, cells were maintained in a CO2 incubator (37° C., 5% CO2) in RPMI-1640 medium supplemented with 5% fetal bovine serum, and 1% penicillin/streptomycin. The fresh medium was replaced every other day. Then, the cultured cells were dropped on the surface of the SiNW-ECIS, designed and fabricated pursuant to teachings of the present application. Prior to each experiment, cells were trypsinized to be detached from the substrate and resuspended on the SiNW surface. To minimize the effect of trypsinization, the procedure may last for less than 4 minutes at room temperature of about 20° C. The samples were held in an incubator for about 4 hours to achieve cells attachment on the SiNWs. Thereafter, the ABZ drug with low concentrations of about 2.1 nano-moles per liter and the PTX drug with low concentrations of about 0.1 nano-moles per liter were added to individual samples. Finally, the signal recording and biological assays were investigated about 2 hours and 6 hours after the drug treatment (6 hours and 10 hours after the beginning of culturing process).\nReferring to FIGS. 12A-12G, comparative normalized diagrams of impedance (designated by ΔZ % and represented by solid black lines) and capacitance changes (designated by ΔC % and represented by dashed grey lines) are illustrated for MCF-7 cells seeded on SiNW electrodes after treating by 2.1 nano-moles per liter of ABZ and 0.1 nano-moles per liter of PTX. The time interval between the drug incubation and the signal extraction are 2 hours (designated by T1) and 6 hours (designated by T2). In addition, the same diagrams are plotted for control sample prepared with no drug treatment stage.\nAccording to the method described in the present example, the samples were maintained in an incubator so that the signal extraction was repeated 10 hours after cells dropping (6 hours after drug incubation for treated samples) to monitor the time evolution of drug induced MT polymerization/depolymerization on bioelectrical response of the membrane."}, "[2]": {"tested_on": "tubulin assemblies of MCF-7 cells", "experiment": "Confocal microscopy of tubulin assemblies of MCF-7 cells", "format": "cell-based, human", "conditions": "ABZ 2.1 nano-moles per liter, PTX 0.1 nano-moles per liter", "description": "In addition, an un-treated control sample was prepared as reference for comparison. Then, samples were washed with PBS and permeabilized with microtubule stabilizing buffer [80 mM PIPES-KOH (pH 6.8), 5 mM EGTA, and 1 mM MgCl2 containing 0.5% Triton X-100] for 5 min at room temperature before being fixed with chilled absolute methanol for 10 min at −20° C. Thereafter, the fixed cells were washed and incubated with monoclonal mouse anti-α-tubulin antibody (Sigma Co.) for 1 hour at room temperature followed by incubation with FITC-conjugated antimouse IgG antibody (Santa Cruz Biotechnology). The stained cells were mounted with Vectashield (Vector Laboratories, Burlingame, Calif.) and observed by confocal microscopy."}, "[3]": {"conditions": "MCF-7, 2 hours vs 6 hours after drug incubation"}},
  "data": [
    {"smiles": "CCCSc1ccc2nc(NC(=O)OC)[nH]c2c1", "note": "[ABZ, Albendazole]", "values": [
      {"measurement": "changes in membrane impedance vs control sample (normalized, mean)", "setting": "[1]", "value": 25, "unit": "%"},
      {"measurement": "variations in capacitance of the sensor vs control sample (normalized)", "setting": "[1]", "value": 70, "unit": "%"},
      {"measurement": "change in norm of impedance of treated cells, T1 vs T2", "setting": "[1]; [3]", "value": "about 60%"},
      {"measurement": "changes in electrical impedance with respect to control sample", "setting": "[1]", "value": "about 90%"},
      {"measurement": "norm of capacitive changes, control sample more than drug value", "setting": "[1]", "value": "about 90%"},
      {"measurement": "spindle / microtubule morphology in confocal image", "setting": "[2]; MCF-7, 2 hours after treatment", "value": "abnormally reduced numbers of spindles or monopolar (monoaster) spindles"},
      {"measurement": "spindle / microtubule morphology in confocal image", "setting": "[2]; MCF-7, 6 hours after treatment", "value": "still the monoastered MTs are observable"}
    ]},
    {"smiles": "CC(=O)O[C@H]1C(=O)[C@@]2(C)[C@H]([C@H](OC(=O)c3ccccc3)[C@]3(O)C[C@H](OC(=O)[C@H](O)[C@@H](NC(=O)c4ccccc4)c4ccccc4)C(C)=C1C3(C)C)[C@]1(OC(C)=O)CO[C@@H]1C[C@@H]2O", "note": "[PTX, Paclitaxel]", "values": [
      {"measurement": "changes in membrane impedance vs control sample (normalized, mean)", "setting": "[1]", "value": "about 50%"},
      {"measurement": "variations in capacitance of the sensor vs control sample (normalized)", "setting": "[1]", "value": "about 60%"},
      {"measurement": "change in norm of impedance of treated cells, T1 vs T2", "setting": "[1]; [3]", "value": 15, "unit": "%"},
      {"measurement": "time dependent variation in capacitive behavior, T1 vs T2", "setting": "[1]; [3]", "value": "about 85%"},
      {"measurement": "changes in electrical impedance with respect to control sample", "setting": "[1]", "value": "about 30%"},
      {"measurement": "norm of capacitive changes, control sample more than drug value", "setting": "[1]", "value": "~75", "unit": "%"},
      {"measurement": "spindle / microtubule morphology in confocal image", "setting": "[2]; MCF-7, 2 hours after treatment", "value": "aggregated spindles"},
      {"measurement": "spindle / microtubule morphology in confocal image", "setting": "[2]; MCF-7, 6 hours after treatment", "value": "increased aggregation in MT spindles"}
    ]}
  ]
}
